Assay results taken from patent US20240299408A1, “METHODS OF TREATING 4-REPEAT TAUOPATHIES” (Woolsey Pharmaceuticals, Inc., priority 2020, published 2024).
Counter-ions that a name gives are not always drawn.

B1: Gosuranemab: humanized monoclonal antibody that targets N-terminal tau (antibody, chains of the INN, looked up, V domains shown)
VH: EVHLVESGGALVKPGGSLRLSCAASGFSFSKYGMSWVRQAPGKGLEWVATISSSGSRTYYPDSVKGRFTISRDNAKNTLYLQMNSLRAEDTAMYYCSISWDGAMDYWGQGTTVTVSS
VL: DVVMTQSPLSLPVTLGQPASISCKSSQSIVHSNGNTYLEWYLQKPGQSPQLLVYKVSNRFSGVPDRFSGSGSGTDFTLKISRVEAEDVGTYYCFQGSLVPWAFGGGTKVEIK
B2: ABBV-8E12: humanized anti-tau monoclonal antibody (antibody, chains of the INN, looked up, V domains shown)
VH: EVKVVESGGGLVQPGGSMKLSCVVSGFTFSNYWVNWVRQAPGKGLEWVAQIRLKSDNYATHYEESVKGRFTISRDDSKSSVYLQMNNLRAEDSGIYYCTNWEDYWGQGTTVTVSS
VL: DIVLTQSPDSLAVSLGERATISCRASQSVSTSRYSYIHWYQQKPGQPPKLLIKYASNLESGVPSRFSGSGSGTDFTLNIHPLEPEDFATYYCHHSWEIPLTFGQGTKLEIK

How the values were obtained:
PSP patients = conditions: cited from earlier work; for effect or benefit in clinical trial in PSP: PSP patients (riluzole: PSP and MSA)
[1] = in vivo, 1-hydroxy metabolite; cited from earlier work
[2] = tested on: subjects with probable or possible PSP; assay: treatment of probable or possible PSP subjects with fasudil, assessments at six months and one year versus baseline and historical controls; assay type: in vivo, human

| Molecule | effect or benefit in clinical trial in PSP (PSP patients) | other results |
| --- | --- | --- |
| O=c1sn(-c2cccc3ccccc23)c(=O)n1Cc1ccccc1 [tideglusib] | failed to show benefit |  |
| O=C(Oc1ccccc1C(=O)O)c1ccccc1O [Salsalate] | failed |  |
| Nc1nc2ccc(OC(F)(F)F)cc2s1 [riluzole] | failed to demonstrate effects |  |
| C=CC1O[C@H]2C[C@H]3OC[C@@]3(OC(C)=O)[C@H]3[C@H](OC(=O)c4ccccc4)[C@]4(O)C[C@H](OC(=O)[C@H](O)[C@H](CC(C)C)NC(=O)OC(C)(C)C)C(C)=C([C@H](OC(C)=O)[C@H](O1)[C@]23C)C4(C)C (stereo partly drawn) [TPI 287] | failed to show any effect |  |
| O=S(=O)(c1cccc2c(O)nccc12)N1CCCNCC1 [M3] |  | half-life [1]: about 8 hours |
| [Li] [lithium] |  | tolerability in open-label trial in PSP (PSP patients; open-label trial in PSP): terminated due to poor tolerability |
| O=S(=O)(c1cccc2cnccc12)N1CCCNCC1 [fasudil, Hexahydro-1-(5-isoquinolinesulfonyl)-1H-1,4-diazepine monohydrochloride hemihydrate] |  | oculomotor and sleep parameters ([2]; fasudil 180 mg/day): improve; PSP-RS increase over a year ([2]; fasudil 180 mg/day (60 mg tid), average is closer to 10): ≤ 5 point |
| CC[C@H](C)[C@H](NC(=O)[C@H](CO)NC(=O)[C@@H](NC(=O)[C@@H]1CCCN1C(=O)[C@H](C)NC(=O)[C@@H](N)CC(N)=O)C(C)C)C(=O)N1CCC[C@H]1C(=O)N[C@@H](CCC(N)=O)C(=O)O [Davunetide] | not shown not to be effective |  |
| COC1=C(OC)C(=O)C(C/C=C(\C)CC/C=C(\C)CC/C=C(\C)CC/C=C(\C)CC/C=C(\C)CC/C=C(\C)CC/C=C(\C)CC/C=C(\C)CC/C=C(\C)CCC=C(C)C)=C(C)C1=O [coenzyme Q10] | failed to provide benefit |  |
| B1 | no effect |  |
| B2 | failed to demonstrate an effect |  |
